Assay results reported in patent publication US10239851B2 (priority 2014, dated 2019).
Like-named read-outs stand apart in the source and are kept apart here.

What was measured:
[1] = test system: human prostate cancer PC-3; details: PC-3 xenograft, nude mice, 33.6 mg/kg, D0 IV, single dose; for Tumor inhibitory percent (%) D20: P(D20)=0.000 vs control
Text: Test of the inhibitory activity of the water soluble docetaxel derivatives on subcutaneously xenografted tumor of human prostate cancer PC-3 in nude mice: evaluating and comparing the inhibitory activity of the water soluble docetaxel derivatives and docetaxel on subcutaneously xenografted tumor of human prostate cancer PC-3 in nude mice.
Human prostate cancer PC-3 cells were subcutaneously inoculated into nude mice. After the tumor volume reached 100-150 mm^3, the animals were randomly divided into several groups, and administered with the water soluble docetaxel derivatives of the present invention and docetaxel, respectively once on the same day (D0). The tumor volume was measured 2-3 times per week, the animals were weighed and the data were recorded until day 20 (D20) after grouping.
(§1) The tumor volume (V) was calculated according to the equation: V=½×a×b^2, wherein a and b represent the length and the width, respectively.
(§2) T/C (%)=(T−T0)/(C−C0)×100, wherein T and C represent the tumor volume at the end of the experiment; and T0 and C0 represent the tumor volume at the beginning of the experiment.

[2] = test system: human prostate cancer PC-3; details: for Tumor volume (mm^3) (D0): D0 (baseline at grouping)
Text: Test of the inhibitory activity of the water soluble cabazitaxel derivatives on subcutaneously xenografted tumor of human prostate cancer PC-3 in nude mice: evaluating and comparing the inhibitory activity of the water soluble cabazitaxel derivatives and cabazitaxel on subcutaneously xenografted tumor of human prostate cancer PC-3 in nude mice.
Human prostate cancer PC-3 cells were subcutaneously inoculated into nude mice. After the tumor volume reached 100-150 mm^3, the animals were randomly divided into several groups, and administered with the water soluble cabazitaxel derivatives of the present invention and cabazitaxel, respectively once on the same day (D0). The tumor volume was measured 2-3 times per week, the animals were weighed and the data were recorded until day 20 (D20) after grouping.
as §1, §2

[3] = In vitro dissociation of the water soluble taxane derivatives in blood plasma of rat; type: in vitro ADME, SD rats; details: 37° C.
Protocol: The obtained water soluble taxane derivatives were formulated as 0.2 mg/ml aqueous solutions. […] After 2 min, 5 min and 10 min of incubation, 0.2 ml of solutions were respectively taken from each of the samples, and added to acetonitrile (0.4 ml) cooled to −20° C. for precipitation of protein.

[4] = In vitro dissociation of the water soluble taxane derivatives in blood plasma of rabbit; type: in vitro ADME, New Zealand white rabbits; details: 37° C.
Protocol: The obtained water soluble taxane derivatives were formulated as 0.2 mg/ml aqueous solutions. […] After 5 min, 20 min and 60 min of incubation, 0.2 ml of solutions were respectively taken from each of the samples, and added to acetonitrile (0.4 ml) cooled to −20° C. for precipitation of protein.

[5] = PC-3 xenograft, nude mice, 13 mg/kg, D0 IV, single dose
[6] = PC-3 xenograft, nude mice, 13 mg/kg, D0 IV, single dose, D6
[7] = PC-3 xenograft, nude mice, 7 mg/kg, D0 IV, single dose

In the case of `CCN(C)CCC(F)C(=O)OC(C(=O)OC1CC2(O)C(OC(=O)c3ccccc3)C3C4(OC(C)=O)COC4CC(O)C3(C)C(=O)C(O)C(=C1C)C2(C)C)C(NC(=O)OC(C)(C)C)c1ccccc1.CS(=O)(=O)O` [Compound 23, 2′-O-[4-(N-methyl-N-ethyl)amino-2(R)-fluorobutyryl]docetaxel methanesulfonate], the “T/C (%) D20” value ([1]; D20) was −62%.

With `CCN(CC)CCC(F)C(=O)OC(C(=O)OC1CC2(O)C(OC(=O)c3ccccc3)C3C4(OC(C)=O)COC4CC(O)C3(C)C(=O)C(O)C(=C1C)C2(C)C)C(NC(=O)OC(C)(C)C)c1ccccc1.O=C(O)C=CC(=O)O` [Compound 24, 2′-O-[4-(N,N-diethyl)amino-2(S)-fluorobutyryl]docetaxel maleate] the “T/C (%) D20” value ([1]; D20) was −52% and the “Tumor inhibitory percent (%) D20” value ([1]; D20) was 120%.

In the case of `CC(=O)O[C@@]12CO[C@@H]1C[C@H](O)[C@@]1(C)C(=O)[C@H](O)C3=C(C)[C@@H](OC(=O)[C@H](OC(=O)[C@H](F)CCN(C)C(C)C)[C@@H](NC(=O)OC(C)(C)C)c4ccccc4)C[C@@](O)([C@@H](OC(=O)c4ccccc4)[C@H]21)C3(C)C.Cl` [Compound 25, 2′-O-[4-(N-methyl-N-isopropyl)amino-2(R)-fluorobutyryl]docetaxel hydrochloride], the “T/C (%) D20” value ([1]; D20) was −44%.

In the case of `CC(=O)O[C@@]12CO[C@@H]1C[C@H](O)[C@@]1(C)C(=O)[C@H](O)C3=C(C)[C@@H](OC(=O)[C@H](OC(=O)[C@@H](CCN(C)C)C(F)(F)F)[C@@H](NC(=O)OC(C)(C)C)c4ccccc4)C[C@@](O)([C@@H](OC(=O)c4ccccc4)[C@H]21)C3(C)C.CS(=O)(=O)O` [Compound 26, 2′-O-[4-(N,N-dimethyl)amino-2(R)-2-trifluoromethylbutyryl] docetaxel methanesulfonate], the “T/C (%) D20” value ([1]; D20) was −46%.

In the case of `CC(=O)O[C@@]12CO[C@@H]1C[C@H](O)[C@@]1(C)C(=O)[C@H](O)C3=C(C)[C@@H](OC(=O)[C@H](OC(=O)C(CCN(C)C)C(F)F)[C@@H](NC(=O)OC(C)(C)C)c4ccccc4)C[C@@](O)([C@@H](OC(=O)c4ccccc4)[C@H]21)C3(C)C.Cl` (stereo partly drawn) [Compound 27, 2′-O-[4-(N,N-dimethyl)amino-2(R,S)-2-difluoromethylbutyryl]docetaxel hydrochloride], the “T/C (%) D20” value ([1]; D20) was −37% and the “Tumor inhibitory percent (%) D20” value ([1]; D20) was 85%.

For `CC(=O)O[C@@]12CO[C@@H]1C[C@H](O)[C@@]1(C)C(=O)[C@H](O)C3=C(C)[C@@H](OC(=O)[C@H](OC(=O)C(F)CCCN(C)C)[C@@H](NC(=O)OC(C)(C)C)c4ccccc4)C[C@@](O)([C@@H](OC(=O)c4ccccc4)[C@H]21)C3(C)C.CS(=O)(=O)O` (stereo partly drawn) [Compound 28, 2′-O-[5-(N,N-dimethyl)amino-2(R,S)-fluorovaleryl]docetaxel methanesulfonate], the “Tumor volume (mm^3) (D0)” value ([1]; D0 (baseline at grouping)) was 118.2 ± 4.8 mm^3, the “Weight change (%) D6” value ([1]; D6) was −15.4% and the “T/C (%) D20” value ([1]; D20) was −28%. The “Tumor volume (mm^3) (D20)” value ([1]; D20) was 41.5 ± 14.7 mm^3 and the “Tumor inhibitory percent (%) D20” value ([1]; D20) was 64%.

For `CCN(C)CC[C@@H](F)C(=O)O[C@@H](C(=O)O[C@H]1C[C@@]2(O)[C@@H](OC(=O)c3ccccc3)[C@@H]3[C@]4(OC(C)=O)CO[C@@H]4C[C@H](OC)[C@@]3(C)C(=O)[C@H](OC)C(=C1C)C2(C)C)[C@@H](NC(=O)OC(C)(C)C)c1ccccc1.O=C(O)/C=C\C(=O)O` [Compound 30, 2′-O-[4-(N-methyl-N-ethyl)amino-2(R)-fluorobutyryl]cabazitaxel maleate], the “T/C (%) D20” value [2, 5] was −56%.

With `CCN(CC)CC[C@@H](F)C(=O)O[C@@H](C(=O)O[C@H]1C[C@@]2(O)[C@@H](OC(=O)c3ccccc3)[C@@H]3[C@]4(OC(C)=O)CO[C@@H]4C[C@H](OC)[C@@]3(C)C(=O)[C@H](OC)C(=C1C)C2(C)C)[C@@H](NC(=O)OC(C)(C)C)c1ccccc1.CS(=O)(=O)O` [Compound 31, 2′-O-[4-(N,N-diethyl)amino-2(R)-fluorobutyryl]cabazitaxel methanesulfonate] the “T/C (%) D20” value [2, 5] was −50%.

In the case of `CO[C@H]1C(=O)[C@]2(C)[C@@H](OC)C[C@H]3OC[C@@]3(OC(C)=O)[C@H]2[C@H](OC(=O)c2ccccc2)[C@]2(O)C[C@H](OC(=O)[C@H](OC(=O)[C@H](F)CCN(C)C(C)C)[C@@H](NC(=O)OC(C)(C)C)c3ccccc3)C(C)=C1C2(C)C.Cl` [Compound 32, 2′-O-[4-(N-methyl-N-isopropyl)amino-2(R)-fluorobutyryl]cabazitaxel hydrochloride], the “T/C (%) D20” value [2, 5] was −45%.

For `CO[C@H]1C(=O)[C@]2(C)[C@@H](OC)C[C@H]3OC[C@@]3(OC(C)=O)[C@H]2[C@H](OC(=O)c2ccccc2)[C@]2(O)C[C@H](OC(=O)[C@H](OC(=O)[C@@H](CCN(C)C)C(F)(F)F)[C@@H](NC(=O)OC(C)(C)C)c3ccccc3)C(C)=C1C2(C)C.CS(=O)(=O)O` [Compound 33, 2′-O-[4-(N,N-dimethyl)amino-2(R)-2-trifluoromethylbutyryl]cabazitaxel methanesulfonate], the “T/C (%) D20” value [2, 5] was −46%.

In the case of `CO[C@H]1C(=O)[C@]2(C)[C@@H](OC)C[C@H]3OC[C@@]3(OC(C)=O)[C@H]2[C@H](OC(=O)c2ccccc2)[C@]2(O)C[C@H](OC(=O)[C@H](OC(=O)[C@@H](CCN(C)C)C(F)F)[C@@H](NC(=O)OC(C)(C)C)c3ccccc3)C(C)=C1C2(C)C.Cc1ccc(S(=O)(=O)O)cc1` [Compound 34, 2′-O-[4-(N,N-dimethyl)amino-2(R)-2-difluoromethylbutyryl] cabazitaxel p-toluene sulfonate], the “Tumor volume (mm^3) (D0)” value [2, 5] was 116.7 ± 3.9 mm^3, the “Weight change (%) D6” value [2, 6] was −16.1% and the “T/C (%) D20” value [2, 5] was −37%. For the same molecule, the “Tumor inhibitory percent (%) D20” value [2, 5] was 85% and the “Tumor volume (mm^3) (D20)” value [2, 5] was 48.4 ± 14.7 mm^3.

With `CO[C@H]1C(=O)[C@]2(C)[C@@H](OC)C[C@H]3OC[C@@]3(OC(C)=O)[C@H]2[C@H](OC(=O)c2ccccc2)[C@]2(O)C[C@H](OC(=O)[C@H](OC(=O)[C@H](F)CCCN(C)C)[C@@H](NC(=O)OC(C)(C)C)c3ccccc3)C(C)=C1C2(C)C.Cl` [Compound 35, 2′-O-[5-(N,N-dimethyl)amino-2(R)-fluorovaleryl]cabazitaxel hydrochloride] the “Tumor volume (mm^3) (D0)” value [2, 5] was 112.9 ± 4.4 mm^3, the “Weight change (%) D6” value [2, 6] was −16.6% and the “T/C (%) D20” value [2, 5] was −28%. For the same molecule, the “Tumor inhibitory percent (%) D20” value [2, 5] was 64% and the “Tumor volume (mm^3) (D20)” value [2, 5] was 55.3 ± 13.8 mm^3.

In the case of `CO[C@H]1C(=O)[C@]2(C)[C@@H](OC)C[C@H]3OC[C@@]3(OC(C)=O)[C@H]2[C@H](OC(=O)c2ccccc2)[C@]2(O)C[C@H](OC(=O)[C@H](OC(=O)[C@H](F)CCCCN(C)C)[C@@H](NC(=O)OC(C)(C)C)c3ccccc3)C(C)=C1C2(C)C.O=S(=O)(O)O` [Compound 36, 2′-O-[6-(N,N-dimethyl)amino-2(R)-fluorohexanoyl]cabazitaxel sulfate], the “Tumor volume (mm^3) (D0)” value [2, 5] was 111.9 ± 3.7 mm^3, the “Weight change (%) D6” value [2, 6] was −16.8% and the “T/C (%) D20” value [2, 5] was −20%. The “Tumor inhibitory percent (%) D20” value [2, 5] was 46% and the “Tumor volume (mm^3) (D20)” value [2, 5] was 66.8 ± 12.4 mm^3.

In the case of `CO[C@H]1C(=O)[C@]2(C)[C@@H](OC)C[C@H]3OC[C@@]3(OC(C)=O)[C@H]2[C@H](OC(=O)c2ccccc2)[C@]2(O)C[C@H](OC(=O)[C@H](OC(=O)[C@H](F)CCN(C)C)[C@@H](NC(=O)OC(C)(C)C)c3ccccc3)C(C)=C1C2(C)C.CS(=O)(=O)O` [Compound C7, 2′-O-[4-(N,N-dimethyl)amino-2(R)-fluorobutyryl]cabazitaxel methanesulfonate], the “T/C (%) D20” value [2, 5] was −67%, the dissociation percent ([3]; 2 min) was 49.7% and the dissociation percent ([3]; 5 min) was 88.9%. The dissociation percent ([3]; 10 min) was 100%, the dissociation percent ([4]; 5 min) was 78.4% and the dissociation percent ([4]; 20 min) was 94.8%. It also gave a dissociation percent ([4]; 60 min) of 100%.

With `CO[C@H]1C(=O)[C@]2(C)[C@@H](OC)C[C@H]3OC[C@@]3(OC(C)=O)[C@H]2[C@H](OC(=O)c2ccccc2)[C@]2(O)C[C@H](OC(=O)[C@H](OC(=O)[C@@H](F)CCN(C)C)[C@@H](NC(=O)OC(C)(C)C)c3ccccc3)C(C)=C1C2(C)C.CS(=O)(=O)O` [Compound C8, 2′-O-[4-(N,N-dimethyl)amino-2(S)-fluorobutyryl]cabazitaxel methanesulfonate] the “T/C (%) D20” value [2, 5] was −66%, the dissociation percent ([3]; 2 min) was 49.4% and the dissociation percent ([3]; 5 min) was 88.4%. It also gave a dissociation percent ([3]; 10 min) of 100%, a dissociation percent ([4]; 5 min) of 85.6% and a dissociation percent ([4]; 20 min) of 94.5%. The dissociation percent ([4]; 60 min) was 100%.

For `CO[C@H]1C(=O)[C@]2(C)[C@@H](OC)C[C@H]3OC[C@@]3(OC(C)=O)[C@H]2[C@H](OC(=O)c2ccccc2)[C@]2(O)C[C@H](OC(=O)[C@H](OC(=O)C(F)CCN(C)C)[C@@H](NC(=O)OC(C)(C)C)c3ccccc3)C(C)=C1C2(C)C.CS(=O)(=O)O` (stereo partly drawn) [Compound C9, 2′-O-[4-(N,N-dimethyl)amino-2(R,S)-fluorobutyryl] cabazitaxel methanesulfonate], the “T/C (%) D20” value [2, 5] was −66%, the dissociation percent ([3]; 2 min) was 49.3% and the dissociation percent ([3]; 5 min) was 88.6%. It also gave a dissociation percent ([3]; 10 min) of 100%, a dissociation percent ([4]; 5 min) of 81.2% and a dissociation percent ([4]; 20 min) of 96.7%. It also gave a dissociation percent ([4]; 60 min) of 100%.

For `CO[C@H]1C(=O)[C@]2(C)[C@@H](OC)C[C@H]3OC[C@@]3(OC(C)=O)[C@H]2[C@H](OC(=O)c2ccccc2)[C@]2(O)C[C@H](OC(=O)[C@H](O)[C@@H](NC(=O)OC(C)(C)C)c3ccccc3)C(C)=C1C2(C)C` [cabazitaxel, reference compound], the “Tumor volume (mm^3) (D0)” value [2, 7] was 111.7 ± 1.8 mm^3, the “T/C (%) D20” value [2, 7] was −27% and the “Tumor inhibitory percent (%) D20” value [2, 7] was 127%. For the same molecule, the “Tumor volume (mm^3) (D20)” value [2, 7] was 79.9 ± 24.8 mm^3 and the “Weight change (%) D6” value ([2]; mouse, in vivo, iv, 7 mg/kg) was −13.8%.
